# Results from US12134611B2, “Compounds and compositions for treating conditions associated with NLRP activity” (Novartis AG, priority 2018, dated 2024).
# Biological target: T1, hNLRP3 (Homo sapiens, UniProt Q96P20)
# T1 construct: THP-1 cells were purchased from the American Type Culture Collection; host or cells: THP-1 cells, PMA-differentiated, stimulated with gramicidin
# Assay: IL-1β production in PMA-differentiated THP-1 cells stimulated with gramicidin (hTHP-1 assay)
# Type: cell-based
# Conditions: read-out: NLRP3 Antagonist, hNLRP3 (THP-1, IL-1b) Normalized: GeoMean IC50
# T1 sequence (Q96P20 whole entry): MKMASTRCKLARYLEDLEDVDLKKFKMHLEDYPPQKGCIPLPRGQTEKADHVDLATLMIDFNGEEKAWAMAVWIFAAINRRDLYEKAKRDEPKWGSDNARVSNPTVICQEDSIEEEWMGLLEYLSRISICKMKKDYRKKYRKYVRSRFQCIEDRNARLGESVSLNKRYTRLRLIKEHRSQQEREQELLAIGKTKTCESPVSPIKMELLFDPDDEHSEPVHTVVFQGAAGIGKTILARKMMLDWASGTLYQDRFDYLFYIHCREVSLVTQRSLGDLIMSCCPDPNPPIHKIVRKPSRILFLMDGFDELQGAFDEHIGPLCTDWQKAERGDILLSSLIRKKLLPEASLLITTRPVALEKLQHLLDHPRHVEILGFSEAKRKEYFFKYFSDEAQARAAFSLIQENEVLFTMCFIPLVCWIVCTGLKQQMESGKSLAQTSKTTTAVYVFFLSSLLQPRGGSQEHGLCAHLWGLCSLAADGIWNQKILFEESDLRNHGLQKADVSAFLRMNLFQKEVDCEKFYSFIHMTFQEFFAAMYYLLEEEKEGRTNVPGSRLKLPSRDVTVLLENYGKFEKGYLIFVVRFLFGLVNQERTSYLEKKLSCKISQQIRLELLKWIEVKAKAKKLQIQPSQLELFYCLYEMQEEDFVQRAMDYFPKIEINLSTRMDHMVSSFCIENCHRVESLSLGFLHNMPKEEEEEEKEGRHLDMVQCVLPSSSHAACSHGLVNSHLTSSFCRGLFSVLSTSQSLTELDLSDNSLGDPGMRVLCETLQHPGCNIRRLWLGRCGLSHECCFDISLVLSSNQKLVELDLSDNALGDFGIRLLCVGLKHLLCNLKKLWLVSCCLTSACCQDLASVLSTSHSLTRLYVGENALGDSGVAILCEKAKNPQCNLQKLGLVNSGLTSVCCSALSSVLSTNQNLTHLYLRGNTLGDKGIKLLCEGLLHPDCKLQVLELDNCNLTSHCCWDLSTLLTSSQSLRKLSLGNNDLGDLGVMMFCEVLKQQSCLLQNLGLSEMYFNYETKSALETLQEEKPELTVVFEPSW
row,Compound,IC50
1,"O=C(N=S1(=O)CCCN1)Nc1c2c(cc3c1CCC3)CCC2 (single isomer, unassigned) [Compound 119a, (R or S)-1-(1,2,3,5,6,7-hexahydro-s-indacen-4-yl)-3-(1-oxido-1l6-isothiazolidin-1-ylidene)urea]",5000 to 30000 nM
2,"O=C(N=S1(=O)NCc2ccccc21)Nc1c2c(cc3c1CCC3)CCC2 (single isomer, unassigned) [Compound 130a, 1-(1,2,3,5,6,7-hexahydro-s-indacen-4-yl)-3-[(1S or 1R)-1-oxo-2,3-dihydro-1-^λ-6,2-benzothiazol-1-ylidene]urea]",> 30000 nM
3,"CN(C)Cc1ccc2c(c1)C(=O)NS2(=O)=NC(=O)Nc1c2c(cc3c1CCC3)CCC2 (centres unmarked) [Compound 125, 1-{5-[(dimethylamino)methyl]-1,3-dioxo-2,3-dihydro-1$l6,2-benzothiazol-1-ylidene}-3-(1,2,3,5,6,7-hexahydro-s-indacen-4-yl)urea]",5000 to 30000 nM
4,"CN(C)Cc1ccc2c(c1)S(=O)(=NC(=O)Nc1c3c(cc4c1CCC4)CCC3)NC2 (single isomer, unassigned) [Compound 133a, (R or S)-1-(6-((dimethylamino)methyl)-1-oxido-2,3-dihydro-1l4-benzo[d]isothiazol-1-ylidene)-3-(1,2,3,5,6,7-hexahydro-s-indacen-4-yl)urea]",5000 to 30000 nM
5,"COCc1ccc2c(c1)S(=O)(=NC(=O)Nc1c3c(cc4c1CCC4)CCC3)NC2=O (centres unmarked) [Compound 217, 1-(1,2,3,5,6,7-hexahydro-s-indacen-4-yl)-3-(6-(methoxymethyl)-1-oxido-3-oxo-2,3-dihydro-1l4-benzo[d]isothiazol-1-ylidene)urea]",200 to 1000 nM

# The next lines start with the values.
row,IC50,Compound
1,200 to 1000 nM,"CC(C)(O)c1ccc2c(c1)S(=O)(=NC(=O)Nc1c3c(nc4c1CCC4(C)C)CCC3)NC2=O (single isomer, unassigned) [Compound 137, (S or R)-1-(3,3-dimethyl-1,2,3,5,6,7-hexahydrodicyclopenta[b,e]pyridin-8-yl)-3-(6-(2-hydroxypropan-2-yl)-1-oxido-3-oxo-2,3-dihydro-1l4-benzo[d]isothiazol-1-ylidene)urea]"
2,200 to 1000 nM,"Cc1c(C2CC2)nc2c(c1NC(=O)N=S1(=O)NC(=O)c3ccc(C(C)(C)O)cc31)CCC2 (single isomer, unassigned) [Compound 138, (S or R)-1-(2-cyclopropyl-3-methyl-6,7-dihydro-5H-cyclopenta[b]pyridin-4-yl)-3-(6-(2-hydroxypropan-2-yl)-1-oxido-3-oxo-2,3-dihydro-1l4-benzo[d]isothiazol-1-ylidene)urea]"
3,40 to 200 nM,"CC(C)(O)c1ccc2c(c1)S(=O)(=NC(=O)Nc1c3c(cc4c1CC4)CCC3)NC2=O (single isomer, unassigned) [Compound 112a, (R or S)-1-(6-(2-hydroxypropan-2-yl)-1-oxido-3-oxo-2,3-dihydro-1l4-benzo[d]isothiazol-1-ylidene)-3-(2,4,5,6-tetrahydro-1H-cyclobuta[f]inden-3-yl)urea]"
